From the supplement of paper PMC10307832

How the values were obtained:
Assay in all cases: relative viability (nuclei count vs DMSO), 5 days (fraction); higher = more cells survive
[1] = system: NCI-H596
Procedure, shortened: (§1)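 Cells from lung cancer lines were seeded into 1536-well plates and, one day later, dosed by pin tool. Treatments were either a single drug or a fixed dose of an anchor drug with five library-drug doses (not always all listed) in √10 steps. After 5 days, nuclei were stained in a one-step fixation (final 0.05% Triton X-100, 1% formaldehyde, 1 ug/ml Hoechst) and counted on 4× images, and relative viability is the treated-to-vehicle nuclei ratio, as the median of duplicate plates.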

[2] = system: PC-14
Procedure, shortened: as §1

[3] = system: NCI-H1355
Procedure, shortened: as §1

[4] = system: NCI-H1792
Procedure, shortened: as §1

[5] = system: NCI-H727
Procedure, shortened: as §1

[6] = system: RERF-LC-KJ
Procedure, shortened: as §1

[7] = system: NCI-H520
Procedure, shortened: as §1

[8] = system: NCI-H460
Procedure, shortened: as §1

[9] = system: NCI-H2347
Procedure, shortened: as §1

[10] = system: NCI-H2170
Procedure, shortened: as §1

[11] = system: LXF-289
Procedure, shortened: as §1

[12] = system: SK-MES-1
Procedure, shortened: as §1

[13] = system: NCI-H322M
Procedure, shortened: as §1

[14] = system: NCI-H1755
Procedure, shortened: as §1

[15] = system: NCI-H650
Procedure, shortened: as §1

[16] = system: NCI-H1651
Procedure, shortened: as §1

[17] = system: NCI-H661
Procedure, shortened: as §1

[18] = system: NCI-H1563
Procedure, shortened: as §1

[19] = system: NCI-H3122
Procedure, shortened: as §1

[20] = system: NCI-H1915
Procedure, shortened: as §1

With `CC1(C)CCC(c2ccc(Cl)cc2)=C(CN2CCN(c3ccc(C(=O)NS(=O)(=O)c4ccc(N[C@H](CCN5CCOCC5)CSc5ccccc5)c(S(=O)(=O)C(F)(F)F)c4)cc3)CC2)C1` [Navitoclax] + CS(=O)(=O)CCNCc1ccc(-c2ccc3ncnc(Nc4ccc(OCc5cccc(F)c5)c(Cl)c4)c3c2)o1 [Lapatinib] (partner 2 µM) the relative viability ([1]; first compound 0.005 µM) was 1.12, the relative viability ([1]; first compound 0.01581 µM) was 1.23 and the relative viability ([1]; first compound 0.05 µM) was 0.955. It also gave a relative viability ([1]; first compound 0.1581 µM) of 1.28, a relative viability ([1]; first compound 0.5 µM) of 1.06 and a relative viability ([2]; first compound 0.005 µM) of 0.343. The relative viability ([2]; first compound 0.01581 µM) was 0.343, the relative viability ([2]; first compound 0.05 µM) was 0.283 and the relative viability ([2]; first compound 0.1581 µM) was 0.385. For the same compound, the relative viability ([2]; first compound 0.5 µM) was 0.338, the relative viability ([3]; first compound 0.005 µM) was 0.988 and the relative viability ([3]; first compound 0.01581 µM) was 0.956. The relative viability ([3]; first compound 0.05 µM) was 1.03, the relative viability ([3]; first compound 0.1581 µM) was 1.05 and the relative viability ([3]; first compound 0.5 µM) was 1.02. The relative viability ([4]; first compound 0.005 µM) was 0.901, the relative viability ([4]; first compound 0.01581 µM) was 1.05 and the relative viability ([4]; first compound 0.05 µM) was 0.662. For the same compound, the relative viability ([4]; first compound 0.1581 µM) was 0.938, the relative viability ([4]; first compound 0.5 µM) was 0.878 and the relative viability ([5]; first compound 0.005 µM) was 0.925. For the same compound, the relative viability ([5]; first compound 0.01581 µM) was 1.01, the relative viability ([5]; first compound 0.1581 µM) was 0.982 and the relative viability ([5]; first compound 0.5 µM) was 0.657. The relative viability ([6]; first compound 0.005 µM) was 0.857, the relative viability ([6]; first compound 0.01581 µM) was 0.809 and the relative viability ([6]; first compound 0.05 µM) was 0.75. It also gave a relative viability ([6]; first compound 0.1581 µM) of 0.852, a relative viability ([6]; first compound 0.5 µM) of 0.884 and a relative viability ([7]; first compound 0.005 µM) of 0.855. It also gave a relative viability ([7]; first compound 0.01581 µM) of 0.965, a relative viability ([7]; first compound 0.05 µM) of 0.967 and a relative viability ([7]; first compound 0.1581 µM) of 0.763. It also gave a relative viability ([7]; first compound 0.5 µM) of 0.758, a relative viability ([8]; first compound 0.005 µM) of 0.909 and a relative viability ([8]; first compound 0.01581 µM) of 0.917. The relative viability ([8]; first compound 0.05 µM) was 1.09, the relative viability ([8]; first compound 0.1581 µM) was 0.892 and the relative viability ([8]; first compound 0.5 µM) was 0.905. The relative viability ([9]; first compound 0.005 µM) was 0.957, the relative viability ([9]; first compound 0.01581 µM) was 1.09 and the relative viability ([9]; first compound 0.05 µM) was 0.753. The relative viability ([9]; first compound 0.1581 µM) was 0.765, the relative viability ([9]; first compound 0.5 µM) was 0.923 and the relative viability ([10]; first compound 0.005 µM) was 0.275. It also gave a relative viability ([10]; first compound 0.01581 µM) of 0.283, a relative viability ([10]; first compound 0.05 µM) of 0.312 and a relative viability ([10]; first compound 0.1581 µM) of 0.285. It also gave a relative viability ([10]; first compound 0.5 µM) of 0.26, a relative viability ([11]; first compound 0.005 µM) of 0.9 and a relative viability ([11]; first compound 0.01581 µM) of 0.91. For the same compound, the relative viability ([11]; first compound 0.05 µM) was 0.864, the relative viability ([11]; first compound 0.1581 µM) was 0.901 and the relative viability ([11]; first compound 0.5 µM) was 0.902. For the same compound, the relative viability ([12]; first compound 0.005 µM) was 0.462, the relative viability ([12]; first compound 0.01581 µM) was 0.552 and the relative viability ([12]; first compound 0.05 µM) was 0.497. For the same compound, the relative viability ([12]; first compound 0.1581 µM) was 0.458, the relative viability ([12]; first compound 0.5 µM) was 0.523 and the relative viability ([13]; first compound 0.005 µM) was 0.672. It also gave a relative viability ([13]; first compound 0.01581 µM) of 0.603, a relative viability ([13]; first compound 0.05 µM) of 0.625 and a relative viability ([13]; first compound 0.1581 µM) of 0.535. It also gave a relative viability ([13]; first compound 0.5 µM) of 0.576, a relative viability ([14]; first compound 0.005 µM) of 1.04 and a relative viability ([14]; first compound 0.01581 µM) of 1.13. For the same compound, the relative viability ([14]; first compound 0.05 µM) was 0.836, the relative viability ([14]; first compound 0.1581 µM) was 0.984 and the relative viability ([14]; first compound 0.5 µM) was 1.02. For the same compound, the relative viability ([15]; first compound 0.005 µM) was 0.709, the relative viability ([15]; first compound 0.01581 µM) was 0.977 and the relative viability ([15]; first compound 0.05 µM) was 1.07. The relative viability ([15]; first compound 0.1581 µM) was 0.894, the relative viability ([15]; first compound 0.5 µM) was 0.881 and the relative viability ([16]; first compound 0.005 µM) was 0.767. The relative viability ([16]; first compound 0.01581 µM) was 0.984, the relative viability ([16]; first compound 0.1581 µM) was 0.803 and the relative viability ([16]; first compound 0.5 µM) was 0.837. The relative viability ([17]; first compound 0.005 µM) was 0.542, the relative viability ([17]; first compound 0.01581 µM) was 0.613 and the relative viability ([17]; first compound 0.05 µM) was 0.484. The relative viability ([17]; first compound 0.1581 µM) was 0.504, the relative viability ([17]; first compound 0.5 µM) was 0.391 and the relative viability ([18]; first compound 0.005 µM) was 1.08. It also gave a relative viability ([18]; first compound 0.01581 µM) of 1.23, a relative viability ([18]; first compound 0.05 µM) of 0.877 and a relative viability ([18]; first compound 0.1581 µM) of 1.05. For the same compound, the relative viability ([18]; first compound 0.5 µM) was 1.44, the relative viability ([19]; first compound 0.005 µM) was 0.998 and the relative viability ([19]; first compound 0.01581 µM) was 0.991. The relative viability ([19]; first compound 0.05 µM) was 1.03, the relative viability ([19]; first compound 0.1581 µM) was 0.892 and the relative viability ([19]; first compound 0.5 µM) was 1.02. It also gave a relative viability ([20]; first compound 0.005 µM) of 0.915, a relative viability ([20]; first compound 0.01581 µM) of 0.953 and a relative viability ([20]; first compound 0.05 µM) of 0.819. It also gave a relative viability ([20]; first compound 0.1581 µM) of 0.862 and a relative viability ([20]; first compound 0.5 µM) of 0.868.
